Laboratory results from patent US11802120B2, “Fused cyclic urea derivatives as CRHR2 antagonist” (RaQualia Pharma Inc., priority 2018, dated 2023).

target: T1, human CRHR2-alpha (Homo sapiens, UniProt Q13324); experiment: cAMP functional assay for human CRHR2 (LANCE Ultra cAMP, TR-FRET); format: cell-based; conditions: CHO-K1 cells expressing human CRHR2-alpha, agonist human urocortin2 at EC80, cAMP; read-out: IC50 against CRHR2
T1 sequence (Q13324 1-411): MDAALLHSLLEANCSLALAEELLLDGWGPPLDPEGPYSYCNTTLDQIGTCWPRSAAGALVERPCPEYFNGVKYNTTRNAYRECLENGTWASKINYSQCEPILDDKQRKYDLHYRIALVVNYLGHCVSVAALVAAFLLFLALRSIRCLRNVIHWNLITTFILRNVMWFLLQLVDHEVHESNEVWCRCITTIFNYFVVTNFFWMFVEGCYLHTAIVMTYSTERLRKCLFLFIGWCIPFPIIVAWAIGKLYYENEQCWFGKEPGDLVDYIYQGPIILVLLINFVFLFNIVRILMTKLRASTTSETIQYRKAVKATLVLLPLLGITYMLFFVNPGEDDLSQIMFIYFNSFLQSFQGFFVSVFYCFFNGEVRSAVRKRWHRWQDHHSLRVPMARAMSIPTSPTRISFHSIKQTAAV
How it was run: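 Inhibition of agonist-driven cAMP was assessed in recombinant CHO-K1 cells at 25° C, using 30 min compound pretreatment and 30 min stimulation with EC80 human urocortin2 (CRHR2) or CRF (CRHR1). IC50 came from dose-response fitting.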

IC50, < 300 nM:
Cn1cnc2ccc(-n3c(=O)n(C[C@H]4CC[C@H](NC(=O)c5cc(Cl)cnc5C(F)F)CC4)c4ccccc43)cc21 [Example 406, 5-chloro-2-(difluoromethyl)-N-((1r,4r)-4-((3′-methyl-2-oxo-3′H-[1,5′-bibenzo[d]imidazol]-3(2H)-yl)methyl)cyclohexyl) nicotinamide]
Cc1ncc(Cl)cc1C(=O)N[C@H]1CC[C@H](Cn2c(=O)n(-c3ccc4c(Cl)nn(C)c4c3)c3ccccc32)CC1 [Example 208, 5-chloro-N-((1r,4r)-4-((3-(3-chloro-1-methyl-1H-indazol-6-yl)-2-oxo-2,3-dihydro-1H-benzo[d]imidazol-1-yl)methyl)cyclohexyl)-2-methylnico-tinamide]
Cc1ncc(Cl)cc1C(=O)N[C@H]1CC[C@H](Cn2c(=O)n(-c3ccc4c(c3)cc(CO)n4C)c3ccccc32)CC1 [Example 497, 5-chloro-N-((1r,4r)-4-((3-(2-(hydroxymethyl)-1-methyl-1H-indol-5-yl)-2-oxo-2,3-dihydro-1H-benzo[d]imidazol-1-yl)methyl)cyclohexyl)-2-methylnicotinamide]
COCCOc1ccc(-n2c(=O)n(C[C@H]3CC[C@H](NC(=O)c4cc(Cl)cnc4C)CC3)c3ccccc32)cn1 [Example 417, 5-chloro-N-((1r,4r)-4-((3-(6-(2-methoxyethoxy)pyridin-3-yl)-2-oxo-2,3-dihydro-1H-benzo[d]imidazol-1-yl)methyl)cyclohexyl)-2-methylnicotinamide]
CCn1nc2ccccc2c1C(=O)N[C@H]1CC[C@H](Cn2c(=O)n(-c3ccc(C(C)O)cc3)c3ccccc32)CC1 (some centres unmarked) [Example 42, 2-ethyl-N-((1r,4r)-4-((3-(4-(1-hydroxyethyl)phenyl)-2-oxo-2,3-dihydro-1H-benzo[d]imidazol-1-yl)methyl)cyclohexyl)-2H-indazole-3-carboxamide]
Cc1ccc(-n2c(=O)n(C[C@H]3CC[C@H](NC(=O)c4cc(Cl)cnc4C(F)F)CC3)c3cccnc32)c(Cl)c1 [Example 452, 5-chloro-N-((1r,4r)-4-((3-(2-chloro-4-methylphenyl)-2-oxo-2,3-dihydro-1H-imidazo[4,5-b]pyridin-1-yl)methyl)cyclo-hexyl)-2-(difluoromethyl) nicotinamide]
Cc1ncc(Cl)cc1C(=O)N[C@H]1CC[C@H](Cn2c(=O)n(-c3cccc(-c4ncco4)c3)c3ccccc32)CC1 [Example 516, 5-chloro-2-methyl-N-((1r,4r)-4-((3-(3-(oxazol-2-yl)phenyl)-2-oxo-2,3-dihydro-1H-benzo [d]imidazol-1-yl)methyl)cyclo-hexyl)nicotinamide]
CCn1nc2ccccc2c1C(=O)N[C@H]1CC[C@H](Cn2c(=O)n(-c3ccc(C(C)=O)cc3)c3ccccc32)CC1 [Example 41, N-((1r,4r)-4-((3-(4-acetylphenyl)-2-oxo-2,3-dihydro-1H-benzo[d]imidazol-1-yl)methyl)cyclohexyl)-2-ethyl-2H-indazole-3-carboxamide]
O=C(N[C@H]1CC[C@H](Cn2c(=O)n(-c3ccc(OCCO)nc3)c3ccc(F)cc32)CC1)c1cc(Cl)cnc1C(F)F [Example 712, 5-chloro-2-(difluoromethyl)-N-((1r,4r)-4-((6-fluoro-3-(6-(2-hydroxyethoxy)pyridin-3-yl)-2-oxo-2,3-dihydro-1H-benzo[d]imidazol-1-yl)methyl)cyclohexyl)nicotinamide]
O=C(N[C@H]1CC[C@H](Cn2c(=O)n(-c3cc(F)ccc3Cl)c3ncccc32)CC1)c1cc(Cl)cnc1C(F)F [Example 454, 5-chloro-N-((1r,4r)-4-((3-(2-chloro-5-fluorophenyl)-2-oxo-2,3-dihydro-1H-imidazo[4,5-b]pyridin-1-yl)methyl)cyclo-hexyl)-2-(difluoromethyl) nicotinamide]
N#Cc1cc(F)ccc1-n1c(=O)n(C[C@H]2CC[C@H](NC(=O)c3cc(Cl)cnc3C(F)F)CC2)c2ccccc21 [Example 627, 5-chloro-N-((1r,4r)-4-((3-(2-cyano-4-fluorophenyl)-2-oxo-2,3-dihydro-1H-benzo[d]imidazol-1-yl)methyl)cyclohexyl)-2-(difluoromethyl)nicotinamide]
Cc1ncc(Cl)cc1C(=O)N[C@H]1CC[C@H](Cn2c(=O)n(-c3cccc4ncccc34)c3ccccc32)CC1 [Example 345, 5-chloro-2-methyl-N-((1r,4r)-4-((2-oxo-3-(quinolin-5-yl)-2,3-dihydro-1H-benzo[d]imidazol-1-yl)methyl)cyclo-hexyl)nicotinamide]
O=C(N[C@H]1CC[C@H](Cn2c(=O)n(-c3ccc(N4CCC4=O)nc3)c3ccccc32)CC1)c1cc(Cl)cnc1C(F)F [Example 501, 5-chloro-2-(difluoromethyl)-N-((1r,4r)-4-((2-oxo-3-(6-(2-oxoazetidin-1-yl)pyridin-3-yl)-2,3-dihydro-1H-benzo [d]imidazol-1-yl)methyl)cyclo-hexyl)nicotinamide]
COc1ccc(Cl)c(-n2c(=O)n(C[C@H]3CC[C@H](NC(=O)c4cc(Cl)cnc4C(F)F)CC3)c3ccncc32)c1 [Example 693, 5-chloro-N-((1r,4r)-4-((3-(2-chloro-5-methoxyphenyl)-2-oxo-2,3-dihydro-1H-imidazo [4,5-c]pyridin-1-yl)methyl)cyclohexyl)-2-(difluoromethyl) nicotinamide]
Cc1ncc(Cl)cc1C(=O)N[C@H]1CC[C@H](Cn2c(=O)n(-c3cnc4[nH]nc(C)c4c3)c3ccccc32)CC1 [Example 271, 5-chloro-2-methyl-N-((1r,4r)-4-((3-(3-methyl-1H-pyrazolo[3,4-b]pyridin-5-yl)-2-oxo-2,3-dihydro-1H-benzo[d]imidazol-1-yl)methyl)cyclohexyl)nicotinamide]
CCC(=O)Nc1ccc(-n2c(=O)n(C[C@H]3CC[C@H](NC(=O)c4cc(Cl)cnc4C(F)F)CC3)c3ccccc32)cn1 [Example 510, 5-chloro-2-(difluoromethyl)-N-((1r,4r)-4-((2-oxo-3-(6-propionamidopyridin-3-yl)-2,3-dihydro-1H-benzo[d]imidazol-1-yl)methyl)cyclo-hexyl)nicotinamide]
Cc1ncc(Cl)cc1C(=O)N[C@H]1CC[C@H](Cn2c(=O)n(-c3ccc4ncsc4c3)c3ncccc32)CC1 [Example 200, N-((1r,4r)-4-((3-(benzo[d]thiazol-6-yl)-2-oxo-2,3-dihydro-1H-imidazo[4,5-b]pyridin-1-yl)methyl)cyclohexyl)-5-chloro-2-methylnicotinamide]
Cc1ncc(Cl)cc1C(=O)N[C@H]1CC[C@H](Cn2c(=O)n(-c3ccc(-c4ccccc4)nc3)c3ccccc32)CC1 [Example 89, 5-chloro-2-methyl-N-((1r,4r)-4-((2-oxo-3-(6-phenylpyridin-3-yl)-2,3-dihydro-1H-benzo[d]imidazol-1-yl)methyl)cyclohexyl)nicotinamide]
Cc1ncc(Cl)cc1C(=O)N[C@H]1CC[C@H](Cn2c(=O)n(-c3ccc(NC4COC4)nc3)c3ccccc32)CC1 [Example 147, 5-chloro-2-methyl-N-((1r,4r)-4-((3-(6-(oxetan-3-ylamino)pyridin-3-yl)-2-oxo-2,3-dihydro-1H-benzo[d]imidazol-1-yl)methyl)cyclo-hexyl)nicotinamide]
CCn1cc2cc(-n3c(=O)n(C[C@H]4CC[C@H](NC(=O)c5cc(Cl)cnc5C)CC4)c4ccccc43)cnc2n1 [Example 254, 5-chloro-N-((1r,4r)-4-((3-(2-ethyl-2H-pyrazolo[3,4-b]pyridin-5-yl)-2-oxo-2,3-dihydro-1H-benzo[d]imidazol-1-yl)methyl)cyclohexyl)-2-methylnicotinamide]
Cc1ncc(Cl)cc1C(=O)N[C@H]1CC[C@H](Cn2c(=O)n(-c3ccc4c(c3)oc(=O)n4C)c3ccccc32)CC1 [Example 164, 5-chloro-2-methyl-N-((1r,4r)-4-((3-(3-methyl-2-oxo-2,3-dihydrobenzo[d]oxazol-6-yl)-2-oxo-2,3-dihydro-1H-benzo [d]imidazol-1-yl)methyl)cyclo-hexyl)nicotinamide]
Cn1cnc2cc(-n3c(=O)n(C[C@H]4CC[C@H](NC(=O)c5cc(Cl)cnc5C(F)F)CC4)c4ccccc43)ccc21 [Example 386, 5-chloro-2-(difluoromethyl)-N-((1r,4r)-4-((1′-methyl-2-oxo-1′H-[1,5′-bibenzo[d]imidazol]-3(2H)-yl)methyl)cyclohexyl)nicotinamide]
CCn1nnc2cc(-n3c(=O)n(C[C@H]4CC[C@H](NC(=O)c5cc(Cl)cnc5C)CC4)c4ccccc43)ccc21 [Example 304, 5-chloro-N-((1r,4r)-4-((3-(1-ethyl-1H-benzo[d][1,2,3]triazol-5-yl)-2-oxo-2,3-dihydro-1H-benzo[d]imidazol-1-yl)methyl)cyclo-hexyl)-2-methylnicotinamide]
